Test results reported in article PMC4303146, “Investigation of cyanine dyes for in vivo optical imaging of altered mitochondrial membrane potential in tumors” (Cancer Medicine, 2014).

Tests used:
HeLa cells [1] = assay: Cellular localization study (fluorescence microscopy with NAO mitochondria marker); format: cell-based, human; conditions: 1 μmol/L, 60 min, NAO 100 nmol/L
Experimental: HeLa cells (3 × 10^5 cells) were cultured in a poly-L-lysine coated glass bottom dish for 24 h at 37°C before use. Cells were washed twice with phosphate-buffered saline (PBS) and then incubated with the IC7-1 derivative dissolved in dimethyl sulfoxide (DMSO) (1 μmol/L final concentration) in DMEM supplemented with 5% FBS and 1% penicillin and streptomycin for 60 min. To determine the dye localization, mitochondria were labeled with NAO (100 nmol/L final concentration) for 20 min before completion of the incubation with IC7-1 derivative. Next, the cells were washed twice each with DMEM and PBS. Cells were viewed with a fluorescence microscope under a 100× oil-immersion objective lens. MetaMorph® software (Molecular Devices, LLC, Sunnyvale, CA) was used for imaging analysis.

BSA = BSA (Bos taurus, UniProt P02769); assay: Association constants of IC7-1 derivatives to albumin (fluorimetric titration); format: binding, bovine; conditions: dye 1 µM, BSA 0-1.0 µM, 30 min; read-out: Ka, association constant of dye-albumin complex (converted)
Sequence of BSA (P02769 25-607): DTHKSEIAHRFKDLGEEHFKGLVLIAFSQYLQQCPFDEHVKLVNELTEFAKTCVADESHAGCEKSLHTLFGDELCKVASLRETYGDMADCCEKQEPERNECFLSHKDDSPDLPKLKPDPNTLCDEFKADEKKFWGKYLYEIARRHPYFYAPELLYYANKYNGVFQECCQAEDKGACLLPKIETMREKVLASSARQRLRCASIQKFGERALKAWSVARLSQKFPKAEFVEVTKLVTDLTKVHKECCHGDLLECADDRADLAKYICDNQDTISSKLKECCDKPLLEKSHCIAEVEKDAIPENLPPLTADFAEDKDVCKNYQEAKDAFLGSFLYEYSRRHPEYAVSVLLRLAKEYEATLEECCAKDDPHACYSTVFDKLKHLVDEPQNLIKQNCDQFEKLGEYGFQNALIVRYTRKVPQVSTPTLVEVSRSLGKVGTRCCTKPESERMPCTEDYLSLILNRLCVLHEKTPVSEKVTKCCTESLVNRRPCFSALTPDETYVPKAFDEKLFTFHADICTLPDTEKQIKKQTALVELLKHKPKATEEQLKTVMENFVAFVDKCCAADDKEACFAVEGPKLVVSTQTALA
Experimental: Binding studies of IC7-1 derivatives to albumin were conducted as reported previously (Beckford G et al. The solvatochromic effects of side chain substitution on the binding interaction of novel tricarbocyanine dyes with human serum albumin. Talanta 2012;92: 45-52). Briefly, IC7-1 derivatives (1 µM final concentration) were incubated with BSA (0, 0.4, 0.6, 0.8, and 1.0 µM) for 30 min to equilibrate. The fluorescence intensity was measured following the excitation at 823 nm and the emission from 840 to 900 nm. The interaction between dye D and albumin A can be expressed by Eq. 1:
The association constant for the dye-albumin complex formation can be expressed by Eq. 2:
Then, the association constant Ka of the dye-albumin complex was calculated from the data for the fluorimetric titration of the dye with albumin using Eq. 3:
1/ΔF = 1/k[D] + (1/(k[D]Ka))·(1/[A]) (3)
where k is a constant depending on the instrumentation and quantum efficiency of the process.
Therefore, a plot of the reciprocal of ΔF versus the reciprocal of albumin concentration gives a straight line. The association constant was calculated by dividing the intercept by the slope of the line.

HeLa cell xenograft = assay: In vivo imaging study in HeLa cell xenograft mice; conditions: for Tumor fluorescence intensity group from ROI analysis / Liver accumulation and excretion: 10 nmol i.v.; for Liver accumulation and excretion: ventral imaging 3-72 h
Experimental: Animal experiments were conducted in accordance with institutional guidelines and were approved by the Kyoto University Animal Care Committee. […] HeLa cells (2 × 10^6 cells in 100 μL of PBS) were subcutaneously inoculated into the right hind legs of mice. Fourteen days after implantation, mice were used for the imaging study.
Clairvivo® OPT measurement and display software ver. 2.6.0.0. (SHIMADZU Co.) was used for imaging analysis.
Exposure time was 5s for the scan at 3 h, and 3s for the other scans. Clairvivo® OPT measurement and display software ver. 2.6.0.0. (SHIMADZU Co., Kyoto, Japan) was used for imaging analysis.

[2] = Photophysical properties (fluorescence spectroscopy, quantum yield); format: physicochemical
Experimental: IC7-1 derivatives were dissolved in chloroform or 5% FBS to give a concentration of 1 μmol/L for fluorescence spectroscopy analysis. Excitation spectra were measured following the emission at 850 nm, and emission spectra were measured following excitation at 823 nm. Quantum yields were determined using a Fluorolog-3 spectrofluorometer equipped with an integrating sphere.

HeLa cells [3] = assay: Cellular uptake study with uncoupler CCCP; format: cell-based, human; conditions: dye 1 μmol/L, 60 min, CCCP 0-25 μmol/L
Experimental: A cellular uptake study was conducted as reported previously. Briefly, the buffer solution (pH 7.4) for the cellular uptake study was composed of NaCl ([…]), KCl (5.4 mmol/L), CaCl2 (1.2 mmol/L), MgSO4 (0.8 mmol/L), NaH2PO4 (0.8 mmol/L), dextrose (5.6 mmol/L), and 4-(2-hydroxyethyl)-1-piperazineethanesulfonic acid) (5 mmol/L). HeLa cells (1 × 10^6 cells/mL buffer solution) were incubated with carbonyl […] m-chlorophenylhydrazone (CCCP; 0, 0.1, 0.25, 0.5, 0.75, 1, 2.5, 5, 10, and 25 μmol/L) for 5 min at 37°C in 1.5 mL microtubes, followed by the addition of the IC7-1 derivative (1 μmol/L final concentration). After a 60-min incubation with the IC7-1 derivative, the cells were washed twice and resuspended with buffer solution. The fluorescence intensity was measured following the excitation at 823 nm and the emission from 840 to 900 nm, and the normalized intensity (%) was calculated as a percentage of fluorescence intensity obtained with CCCP untreated (0 μmol/L) cells.
The buffer solution (pH 7.4) for the cellular uptake study was composed of NaCl (145 mM), KCl (5.4 mM), CaCl2 (1.2 mM), MgSO4 (0.8 mM), NaH2PO4 (0.8 mM), dextrose (5.6 mM), and HEPES (5 mM). The HeLa cells (1 x 10^6 cells / ml buffer solution) were incubated with an uncoupler (CCCP; 0, 0.1, 0.25, 0.5, 0.75, 1, 2.5, 5, 10, and 25 µM) for 5 min at 37 °C in 1.5 mL microtubes, followed by the addition of IR-780 or IC7-1-Bu (1 µM final concentration) After a 60 min incubation with the dyes, the cells were washed twice and resuspended with buffer solution. Fluorescence intensity was measured following the excitation at 763 nm and the emission from 780 to 880 nm for IR-780, and the excitation at 823 nm and the emission from 840 to 900 nm for IC7-1-Bu. The normalized intensity (%) was calculated as a percentage of fluorescence intensity obtained with CCCP untreated (0 µM) cells.

Kd (BSA) [nM] | Φ, quantum yield ([2]; 5% FBS) | ε, extinction coefficient ([2]; 5% FBS) [mol/L/cm] | emmax, maximum emission wavelength ([2]; 5% FBS, 1 μmol/L) [nm] | exmax, maximum excitation wavelength ([2]; 5% FBS, 1 μmol/L) [nm] | Φ, quantum yield ([2]; CHCl3) | ε, extinction coefficient ([2]; CHCl3) [mol/L/cm] | emmax, maximum emission wavelength ([2]; CHCl3, 1 μmol/L) [nm] | exmax, maximum excitation wavelength ([2]; CHCl3, 1 μmol/L) [nm] | Structure (SMILES) | Subcellular localization of NIR fluorescence (HeLa cells [1]) | Tumor fluorescence intensity group from ROI analysis (HeLa cell xenograft) | Tumor depiction in fluorescence images (HeLa cell xenograft; 10 nmol i.v., 24, 48 and 72 h) | Liver accumulation and excretion (HeLa cell xenograft) | Fluorescence intensity at the tumor region (HeLa cell xenograft; 10 nmol i.v., 24, 48 and 72 h) | Normalized cellular fluorescence intensity under CCCP treatment (HeLa cells [3])
556 | 0.04 | 130000 | 847 | 823 | 0.06 | 330000 | 842 | 823 | CCN1/C(=C/C=C2\CCCC(/C=C/C3=[N+](CC)c4ccc5ccccc5c4C3(C)C)=C2Cl)C(C)(C)c2c1ccc1ccccc21 [IC7-1-Et, 3-Ethyl-2-(2-{3-[2-(3-ethyl-1,1-dimethyl-1,3-dihydro-benz[e]indol-2-ylidene)-ethylidene]-2-chloro-cyclohex-1-enyl}-vinyl)-1,1-dimethyl-1H-benz[e]indolium] | colocalized fluorescence with NAO | negligible intensity group | negligible signals from the whole body | accumulated in the liver, and were quickly excreted | – | –
833 | 0.03 | 60000 | 841 | 823 | 0.06 | 330000 | 845 | 823 | CCCCCCN1/C(=C/C=C2\CCCC(/C=C/C3=[N+](CCCCCC)c4ccc5ccccc5c4C3(C)C)=C2Cl)C(C)(C)c2c1ccc1ccccc21 [IC7-1-He, 3-Hexyl-2-(2-{3-[2-(3-hexyl-1,1-dimethyl-1,3-dihydro-benz[e]indol-2-ylidene)-ethylidene]-2-chloro-cyclohex-1-enyl}-vinyl)-1,1-dimethyl-1H-benz[e]indolium] | weak or negligible fluorescence in the NIR region | negligible intensity group | negligible signals from the whole body | – | weak at all time points | reduced cellular fluorescence from treatment with a low CCCP concentration
769 | 0.04 | 120000 | 846 | 823 | 0.07 | 330000 | 841 | 823 | CN1/C(=C/C=C2\CCCC(/C=C/C3=[N+](C)c4ccc5ccccc5c4C3(C)C)=C2Cl)C(C)(C)c2c1ccc1ccccc21 [IC7-1-Me, 3-Methyl-2-(2-{3-[2-(3-methyl-1,1-dimethyl-1,3-dihydro-benz[e]indol-2-ylidene)-ethylidene]-2-chloro-cyclohex-1-enyl}-vinyl)-1,1-dimethyl-1H-benz[e]indolium] | colocalized fluorescence with NAO | negligible intensity group | negligible signals from the whole body | accumulated in the liver, and were quickly excreted | – | –
– | – | – | – | – | – | – | – | – | CCCN1/C(=C/C=C2\CCCC(/C=C/C3=[N+](CCC)c4ccccc4C3(C)C)=C2Cl)C(C)(C)c2ccccc21.[I-] [IR-780, reference compound] | – | – | – | – | – | almost negligible effect of CCCP
